Results from patent publication US20130079312A1, “Method of Treating Hair Loss Due to Systemic Chemotherapy” (ELORAC, LTD., priority 2011, published 2013).

Experiment: Topical vasoconstrictor formulation applied to hair-bearing areas of patients receiving cancer chemotherapy; hair loss
Format: in vivo

SMILES | hair loss (Oxymetazoline 2.0% by weight in hydroethanolic foam, scalp and eyebrows, 60 minutes prior to intravenous nitrogen mustard, then three times daily for two week intervals) | hair loss (scalp lotion containing 0.01% naphazoline, 30 minutes prior to and 15 minutes after each course of intravenous docetaxel, breast cancer patients)
Cc1cc(C(C)(C)C)c(O)c(C)c1CC1=NCCN1 [Oxymetazoline, oxymetazoline] | prevention of major hair loss | 
c1ccc2c(CC3=NCCN3)cccc2c1 [naphazoline] |  | lose little, if any, of their hair
